Values of other authors, collected in patent US20220273646A1, “PHARMACEUTICAL COMPOSITION OF TEMOZOLOMIDE” (INTAS PHARMACEUTICALS LTD., priority 2019, published 2022).
Like-named read-outs stand apart in the source and are kept apart here.

Assays:
[1] = extemporaneously prepared oral suspensions from capsules, 4° C.
[2] = solution from powder for intravenous infusion

time found chemically stable [1]: at least 60 days | temozolomide remained intact ([2]; 1.25 mg/mL, 13 weeks at 5° C.): more than 90% | temozolomide remained intact ([2]; 2.5 mg/mL, 9 days at room temperature): more than 90%
Structure (SMILES): Cn1nnc2c(C(N)=O)ncn2c1=O [Temozolomide, 4-methyl-5-oxo-2,3,4,6,8-pentazabicyclo[4.3.0] nona-2,7,9-triene-9-carboxamide]
